Here are results for 19 molecules from patent publication US11312727B1, “Macrocyclic flu endonuclease inhibitors” (Janssen BioPharma, Inc., priority 2018, dated 2022).

One series in a line: in vitro. Conditions: human, CC50, uninfected A549 cells, CellTiter-Glo.
The target in series [1] is EN PA (full length recombinant PA endonuclease) (Influenza A virus (strain A/Wilson-Smith/1933 H1N1) (Influenza A virus (strain A/WS/1933 H1N1)), UniProt P15659). Kind of series: biochemical. The following applies: full length EN PA 1 to 10 nM, 50 nM FRET probe; mean of a minimum of two independent experiments; read-out: FRET_ _IC50.
Series [2] has as its system Influenza strain A549 A/WSN/33 (H1N1). Kind of series: microbe, parasite or virus in culture. It counts as cell-based. The following applies: A549 cells, influenza A/WSN/33 (H1N1), 20 hours incubation, read-out: A549_A(H1N1) EC50.
The subject of series [3] is Human lung carcinoma A549 cells. Conditions: uninfected A549 cells, CellTiter-Glo.

Molecules are shown by their SMILES. pEC50, pIC50: −log10 of the molar value. Read-outs that look alike come from different tables or passages of the source.

With `CC1CCCCc2ccccc2C(c2ccccc2)N2CN1C(=O)c1c(O)c(=O)ccn12` (stereo not shown) [Compound 13, 4-hydroxy-7-methyl-15-phenyl-8,9,10,15-tetrahydro-7H-6,16-methanobenzo[j]pyrido[1,2-b][1,2,5]triazacyclododecine-3,5-dione], the CC50 in “in vitro” is above 2 µM. The pIC50 in series [1] was 7.34. The pEC50 in series [2] (Influenza A virus, A549, 20 h) is 7.72.

For the molecule `O=C1c2c(OCc3ccccc3)c(=O)ccn2N2CN1CC=CCOc1cccc3c1C2c1ccccc1SC3` (stereo not shown), the ring closure, yield of all isomers (from C=CCOc1cccc2c1C(N1CN(CC=C)C(=O)c3c(OCc4ccccc4)c(=O)ccn31)c1ccccc1SC2, rcm bond, Hoveyda-Grubbs catalyst 2nd generation, DCE, 16.04 mM, 80.0 °C, […]) turned out to be 15%.

On to `O=C1c2c(OCc3ccccc3)c(=O)ccn2N2CN1CC1CC1COc1ccccc1C2c1ccccc1` (stereo not shown), for which the ring closure, yield of all isomers (from O=C1c2c(OCc3ccccc3)c(=O)ccn2N(C(c2ccccc2)c2ccccc2O)CN1CC1CC1CBr, ether bond, K2CO3, CH3CN, 44.8 mM, […], 0.5 h) was found to be 55.8%.

`O=C1c2c(O)c(=O)ccn2N2CN1C/C=C\CCc1ccccc1C2c1ccncc1` (single isomer, unassigned) [Compound 52B, (16*S,*Z)-4-hydroxy-16-(pyridin-4-yl)-7,10,11,16-tetrahydro-6,17-methanobenzo[k]pyrido[1,2-b][1,2,5]triazacyclotridecine-3,5-dione]: the pEC50 in series [2] is 7.08. Besides, the CC50 in series [3] was above 2 µM.

Under “from C=CCCN1CN(C(c2ccccc2)c2ccccc2CC=C)n2ccc(=O)c(OCc3ccccc3)c2C1=O, rcm bond, Hoveyda-Grubbs 2nd generation, DCE, 12.7 mM, 80.0 °C, 3.0 h”, `O=C1c2c(OCc3ccccc3)c(=O)ccn2N2CN1CCC=CCc1ccccc1C2c1ccccc1` (stereo not shown) returned a ring closure, yield of all isomers of 69.2%.

As for `O=C1c2c(O)c(=O)ccn2N2CN1C/C=C\CCc1ccccc1C2c1ccncc1` (single isomer, unassigned) [Compound 52A, (16*R,*Z)-4-hydroxy-16-(pyridin-4-yl)-7,10,11,16-tetrahydro-6,17-methanobenzo[k]pyrido[1,2-b][1,2,5]triazacyclotridecine-3,5-dione], the pEC50 in series [2] is below 6.00. Besides, the CC50 in series [3] was above 2 µM.

`O=C1c2c(O)c(=O)ccn2N2CN1C/C=C/CCc1ccccc1C2c1cccc(F)n1` (single isomer, unassigned) [Compound 78A, (16*R,E)-16-(6-fluoropyridin-2-yl)-4-hydroxy-7,10,11,16-tetrahydro-6,17-methanobenzo[k]pyrido[1,2-b][1,2,5]triazacyclotridecine-3,5-dione]: the pEC50 in series [2] is 7.72. Also, the CC50 in series [3] was above 1 µM.

In turn, `O=C1c2c(OCc3ccccc3)c(=O)ccn2N2CN1C1(C=CCOc3c(ccc(F)c3F)C2c2ccccc2)CCC1` (stereo not shown) displayed a ring closure, yield of all isomers (from C=CCOc1c(C(c2ccccc2)N2CN(C3(C=C)CCC3)C(=O)c3c(OCc4ccccc4)c(=O)ccn32)ccc(F)c1F, rcm bond, Hoveyda-Grubbs II, dichloroethane, 12.05 mM, 100.0 °C, 6.0 h) of 40.7%.

`O=C1c2c(O)c(=O)ccn2N2CN1C/C=C/CCc1c(F)cccc1C2c1cccc(F)n1` (single isomer, unassigned) [Compound 76B, (16*S,E)-12-fluoro-16-(6-fluoropyridin-2-yl)-4-hydroxy-7,10,11,16-tetrahydro-6,17-methanobenzo[k]pyrido[1,2-b][1,2,5]triazacyclotridecine-3,5-dione]: in series [2], the pEC50 is 8.22. Also, the CC50 in series [3] was above 0.2 µM.

Turning to `O=C1c2c(O)c(=O)ccn2N2CN1CCCCCOc1cccc3c1[C@@H]2c1ccccc1SC3` (single isomer, unassigned) [Compound 69A, (23b*R)-6-hydroxy-10,11,12,13,18,23b-hexahydro-9H-1,8-methano[1]benzothiepino[5,4,3-lm]pyrido[2,1-i][1,7,10,11]benzoxatriazacyclotetradecine-5,7-dione], in series [2], the negative logarithm of the EC50 (pEC50) was below 6.00. The molecule also had a CC50 in series [3] above 2 µM.

`O=C1c2c(OCc3ccccc3)c(=O)ccn2N2CN1CC=CCOc1c(F)cccc1C2c1cccc(F)c1` (stereo not shown) had a ring closure, yield of all isomers (from C=CCOc1c(F)cccc1C(c1cccc(F)c1)N1CN(CC=C)C(=O)c2c(OCc3ccccc3)c(=O)ccn21, rcm bond, Hoveyda-Grubbs second generation catalyst, DCE, 19.6 mM, 80.0 °C, 2.0 h) of 13.6%.

As to `O=C1c2c(O)c(=O)ccn2N2CN1CCCCCOc1cccc3c1[C@H]2c1ccccc1SC3` (single isomer, unassigned) [Compound 69B, (23b*S)-6-hydroxy-10,11,12,13,18,23b-hexahydro-9H-1,8-methano[1]benzothiepino[5,4,3-lm]pyrido[2,1-i][1,7,10,11]benzoxatriazacyclotetradecine-5,7-dione], the pEC50 in series [2] is 7.57. Moreover, the CC50 in series [3] is above 2 µM.

In the case of `O=C1c2c(O)c(=O)ccn2N2CN1C/C=C/CCc1c(F)cccc1C2c1cccc(F)n1` (single isomer, unassigned) [Compound 76A, (16*R,E)-12-fluoro-16-(6-fluoropyridin-2-yl)-4-hydroxy-7,10,11,16-tetrahydro-6,17-methanobenzo[k]pyrido[1,2-b][1,2,5]triazacyclotridecine-3,5-dione], the pEC50 in series [2] was 5.45. The same molecule came in with a CC50 in series [3] of 43.9 µM.

For the setting “from C=CCCN1CN(C2c3ccccc3SCc3cccc(OCC=C)c32)n2ccc(=O)c(OCc3ccccc3)c2C1=O, rcm bond, Hoveyda-Grubbs catalyst 2nd generation, DCE, 13.86 mM, 80.0 °C, […]”, `O=C1c2c(OCc3ccccc3)c(=O)ccn2N2CN1CCC=CCOc1cccc3c1C2c1ccccc1SC3` (stereo not shown) displayed a ring closure, yield of all isomers of 19.8%.

For the molecule `CCC1C=CCOc2ccccc2C(c2ccccc2)N2CN1C(=O)c1c(OCc3ccccc3)c(=O)ccn12` (stereo not shown), the ring closure, yield of all isomers (from C=CCOc1ccccc1C(c1ccccc1)N1CN(C(C=C)CC)C(=O)c2c(OCc3ccccc3)c(=O)ccn21, rcm bond, Hoveyda-Grubbs catalyst 2nd generation, DCE, […], 80.0 °C, 2.0 h) amounted to 62.5%.

The molecule `O=C1c2c(OCc3ccccc3)c(=O)ccn2N2CN1CC=CCOc1ccccc1C2c1ccccc1` (stereo not shown) came in with a ring closure, yield of all isomers (from C=CCOc1ccccc1C(c1ccccc1)N1CN(CC=C)C(=O)c2c(OCc3ccccc3)c(=O)ccn21, rcm bond, Hoveyda-Grubbs 2nd generation, DCE, […], 80.0 °C, 2.0 h) of 21.4%.

In the case of `O=C1CCN2CN(C(c3ccccc3)c3ccccc3CN1)n1ccc(=O)c(OCc3ccccc3)c1C2=O` (stereo not shown), the ring closure, yield of all isomers (from NCc1ccccc1C(c1ccccc1)N1CN(CCC(=O)O)C(=O)c2c(OCc3ccccc3)c(=O)ccn21, amide bond, HATU, DMF, […], 80.0 °C) amounted to 51.7%.

Turning to `O=C1c2c(OCc3ccccc3)c(=O)ccn2N2CN1CC=CCOc1ccccc1C2c1ccccn1` (stereo not shown), under “from C=CCOc1ccccc1C(c1ccccn1)N1CN(CC=C)C(=O)c2c(OCc3ccccc3)c(=O)ccn21, rcm bond, Hoveyda-Grubbs catalyst 2nd generation, DCE, 14.6 mM, 80.0 °C, 2.0 h”, the ring closure, yield of all isomers was 9.7%.

Regarding `O=C1c2c(OCc3ccccc3)c(=O)ccn2N2CN1CC=CCCOc1cccc(c1)C2c1ccccc1` (stereo not shown), for the setting “from C=CCCOc1cccc(C(c2ccccc2)N2CN(CC=C)C(=O)c3c(OCc4ccccc4)c(=O)ccn32)c1, rcm bond, Hoveyda-Grubbs 2nd generation, DCE, 12.1 mM, 90.0 °C, […]”, the ring closure, yield of all isomers was 8.9%.
